As a reminder, the IC50 is the midpoint of a concentration-inhibition curve. Lower therefore signals greater potency in that assay.

Consider 3 compounds from ChEMBL document CHEMBL1135867, “Synthesis, photobiological activity and photoreactivity of methyl-thieno-8-azacoumarins, novel bioisosters of psoralen” (Bioorg Med Chem Lett, 2002).

The species named for test [1] is Cavia porcellus. In words: Skin phototoxicity was evaluated after UVA irradiation at a dose of 0.2 (umol cm e-2) and formation of erythema was reported; Absent. In kind it is functional, organism-based.
For another test, the system named is HeLa. In words: Compound was evaluated for its antiproliferative activity after UVA irradiation on human tumor HeLa cell line. The format is functional, cell-based. Conditions: light or radiation study.
For the next test, the system named is HL-60. In words: Compound was evaluated for its antiproliferative activity after UVA irradiation on human tumor HL-60 cell line. The format is functional, cell-based. Conditions: HL-60, light or radiation study.
In test [2] the test system is Cavia porcellus. In words: Skin phototoxicity was evaluated after UVA irradiation at a dose of 0.05 (umol cm e-2) and formation of erythema was reported; Strong (with edema). In kind it is functional, organism-based.

Structures are written as SMILES. Calls of active or inactive are those of the source. No cut-off for these calls is given here. Where only a bound is given, the exact number is not on record here.

Take `Cc1sc2nc3oc(=O)cc(C)c3cc2c1C`: in the test listed under Cavia porcellus [1], the Formation of erythema result was “inactive”. For the same compound, the concentration for half-maximal inhibition (IC50) is more than 20 µM in the test on HeLa and 7.3 µM in the test on HL-60.
With `Cc1cc(=O)oc2nc3scc(C)c3cc12`, in the test listed under Cavia porcellus [1], the Formation of erythema result is “inactive”. For the same compound, the IC50 with HeLa worked out at 8.9 µM; with HL-60 it was 2.2 µM.
Regarding `COc1c2occc2cc2ccc(=O)oc12`, in the test with Cavia porcellus [2], the Formation of erythema entry was “Active”.
